Holding throughout (type): functional
Test [1] has as its system Mus musculus. The test can be described thus: Potentiation of stilbestrol-induced estrogenic activity in albino ICI mouse assessed as body […] ratio at 0.1 ug, sc qd for 3 days (reference value: 232.2 +/- 10.4).
The test system of test [2] is Mus musculus. The test can be described thus: Estrogenic activity in albino ICI mouse assessed as uterus weight at 100 ug, sc qd for 3 days (reference value: 28 +/- 2 mg).
In test [3] the test system is Mus musculus. The test can be described thus: Potentiation of stilbestrol-induced estrogenic activity in albino ICI mouse assessed as uterus weight at 0.1 ug, sc qd for 3 days (reference value: 28 +/- 2 mg).
Test [4] deals with Mus musculus. Description: Potentiation of stilbestrol-induced estrogenic activity in albino ICI mouse assessed as uterus weight at 100 ug, sc qd for 3 days (reference value: 28 +/- 2 mg).
Test [5] has as its system Mus musculus. The test can be described thus: Potentiation of stilbestrol-induced estrogenic activity in albino ICI mouse assessed as body weight at 100 ug, sc qd for 3 days (reference value: 12.1 +/- 0.7 gram).
In test [6] the test system is Mus musculus. Description: Potentiation of stilbestrol-induced estrogenic activity in albino ICI mouse assessed as body […] ratio at 100 ug, sc qd for 3 days (reference value: 232.2 +/- 10.4).
The subject of test [7] is Mus musculus. Description: Estrogenic activity in albino ICI mouse assessed as body […] ratio at 100 ug, sc qd for 3 days (reference value: 232.2 +/- 10.4).
The test system of test [8] is Mus musculus. The test can be described thus: Estrogenic activity in albino ICI mouse assessed as uterus weight at 0.1 ug, sc qd for 3 days (reference value: 28 +/- 2 mg).
For test [9], the system named is Mus musculus. Description: Estrogenic activity in albino ICI mouse assessed as body weight at 0.1 ug, sc qd for 3 days (reference value: 12.1 +/- 0.7 gram).
In test [10] the test system is Mus musculus. Description: Estrogenic activity in albino ICI mouse assessed as body weight at 100 ug, sc qd for 3 days (reference value: 12.1 +/- 0.7 gram).
In test [11] the test system is Mus musculus. Description: Potentiation of stilbestrol-induced estrogenic activity in albino ICI mouse assessed as body weight at 0.1 ug, sc qd for 3 days (reference value: 12.1 +/- 0.7 gram).
In test [12] the test system is Mus musculus. The test can be described thus: Estrogenic activity in albino ICI mouse assessed as body […] ratio at 0.1 ug, sc qd for 3 days (reference value: 232.2 +/- 10.4).

Consider `O=C1CCC2(CC1)Cc1ccccc1C2=O`, for which the Ratio in test [1] was 957.1; in [6], 1366.9; in test [7], 212.7; in test [12], 252. The Activity worked out at 28.3 mg in test [2]; 145 mg in [3]; 192.3 mg in [4]; 14.1 g in test [5]; 35.5 mg in [8]; 14.1 g in test [9]. Besides, the Activity came out at 13.3 g in test [10] and 15.2 g in test [11].

`CC/C(=C(/CC)c1ccc(O)cc1)c1ccc(O)cc1` [DIETHYLSTILBESTROL]: the Activity in test [8] came to 148 mg; in test [9], 16.8 g. Besides, the Ratio in test [12] is 882.
